For the first assay, the target named is human PAD4 (hPAD4) (Homo sapiens, UniProt Q9UM07). Put plainly: RFMS Human PAD4 Functional Assay. In kind it is biochemical. The conditions noted are these: hPAD4 RFMS IC50, human PAD4, rapid-fire mass spectrum (RFMS) assay; 5 nM hPAD4, 250 μM BAEE. The method in brief: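 RapidFire ESI-MS quantification, normalised to a modified-citrulline internal standard, after phenyl glyoxal (final 4 mM) derivatisation of the TCA-quenched reaction. The enzyme (10 nM) sat 30 min with compound (up to 50 μM final) before 500 μM BAEE (as added) started a 90 min, 37 °C reaction. Buffer: HEPES pH 7.5, 50 μM calcium, 5 μM TPEN.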
Sequence of human PAD4 (hPAD4) (Q9UM07 whole entry): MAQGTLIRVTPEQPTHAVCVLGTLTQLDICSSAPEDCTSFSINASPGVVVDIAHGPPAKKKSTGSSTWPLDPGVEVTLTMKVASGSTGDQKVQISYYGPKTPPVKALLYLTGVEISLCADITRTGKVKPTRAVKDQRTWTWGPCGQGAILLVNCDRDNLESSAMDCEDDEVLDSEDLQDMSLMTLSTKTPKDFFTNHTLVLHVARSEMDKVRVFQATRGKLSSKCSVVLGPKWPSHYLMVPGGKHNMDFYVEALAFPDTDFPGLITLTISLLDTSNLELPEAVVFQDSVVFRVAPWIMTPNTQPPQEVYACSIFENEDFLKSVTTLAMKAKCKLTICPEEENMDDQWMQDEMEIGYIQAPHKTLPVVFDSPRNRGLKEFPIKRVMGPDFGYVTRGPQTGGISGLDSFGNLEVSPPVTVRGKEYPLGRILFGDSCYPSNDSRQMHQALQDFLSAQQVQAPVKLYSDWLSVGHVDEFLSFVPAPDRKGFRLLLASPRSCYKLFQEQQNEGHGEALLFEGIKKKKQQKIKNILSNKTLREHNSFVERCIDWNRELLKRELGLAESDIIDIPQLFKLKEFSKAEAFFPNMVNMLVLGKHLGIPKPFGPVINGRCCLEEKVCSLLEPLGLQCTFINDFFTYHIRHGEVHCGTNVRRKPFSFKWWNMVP
With `C=CC(=O)Nc1cccc(-c2cccc3cc(-c4nc5cc(C(=O)N6C[C@H]7CC[C@@H]6[C@@H]7N)cc(OC)c5n4C)n(CC4CC4)c23)c1` [Example 88, N-[3-(2-{5-[(1R,4R,7R)-7-amino-2-azabicyclo[2.2.1]heptane-2-carbonyl]-7-methoxy-1-methyl-1H-1,3-benzodiazol-2-yl}-1-(cyclopropylmethyl)-1H-indol-7-yl)phenyl]prop-2-enamide], the IC50 amounted to 56 nM.
On the same count and under the same terms, under `COc1cc(C(=O)N2C[C@H]3CC[C@@H]2[C@@H]3N)cc2nc(-c3cc4cccc(-c5ccc(CNC(C)=O)cc5)c4n3CC3CC3)n(C)c12` [Example 89, N-{[4-(2-{5-[(1R,4R,7R)-7-amino-2-azabicyclo[2.2.1]heptane-2-carbonyl]-7-methoxy-1-methyl-1H-1,3-benzodiazol-2-yl}-1-(cyclopropylmethyl)-1H-indol-7-yl)phenyl]methyl}acetamide] stands 108 nM; under `COc1cc(C(=O)N2C[C@H]3CC[C@@H]2[C@@H]3N)cc2nc(-c3cc4cccc(-c5ccc(O)c(F)c5)c4n3CC3CC3)n(C)c12` [Example 90, 4-(2-{5-[(1R,4R,7R)-7-amino-2-azabicyclo[2.2.1]heptane-2-carbonyl]-7-methoxy-1-methyl-1H-1,3-benzodiazol-2-yl}-1-(cyclopropylmethyl)-1H-indol-7-yl)-2-fluorophenol], 45 nM.
Still for that read-out and setting: the result for `COc1cc(-c2cccc3cc(-c4nc5cc(C(=O)N6C[C@H]7CC[C@@H]6[C@@H]7N)cc(OC)c5n4C)n(CC4CC4)c23)ccc1O` [Example 91, 4-(2-{5-[(1R,4R,7R)-7-amino-2-azabicyclo[2.2.1]heptane-2-carbonyl]-7-methoxy-1-methyl-1H-1,3-benzodiazol-2-yl}-1-(cyclopropylmethyl)-1H-indol-7-yl)-2-methoxyphenol] reads 42 nM.
The same measure, in the same setting: under `COc1cc(C(=O)N2C[C@H]3CC[C@@H]2[C@@H]3N)cc2nc(-c3cc4cccc(-c5ccc(O)c(Cl)c5)c4n3CC3CC3)n(C)c12` [Example 92, 4-(2-{5-[(1R,4R,7R)-7-amino-2-azabicyclo[2.2.1]heptane-2-carbonyl]-7-methoxy-1-methyl-1H-1,3-benzodiazol-2-yl}-1-(cyclopropylmethyl)-1H-indol-7-yl)-2-chlorophenol] stands 58 nM.
For `COc1cc(C(=O)N2C[C@H]3CC[C@@H]2[C@@H]3N)cc2nc(-c3cc4cccc(-c5ccc(O)cc5Cl)c4n3CC3CC3)n(C)c12` [Example 93, 4-(2-{5-[(1R,4R,7R)-7-amino-2-azabicyclo[2.2.1]heptane-2-carbonyl]-7-methoxy-1-methyl-1H-1,3-benzodiazol-2-yl}-1-(cyclopropylmethyl)-1H-indol-7-yl)-3-chlorophenol], 53 nM corresponded to half-maximal inhibition (IC50).
The same measure, in the same setting: the result for `COc1cc(C(=O)N2C[C@H]3CC[C@@H]2[C@@H]3N)cc2nc(-c3cc4cccc(-c5cc(F)c(O)cc5F)c4n3CC3CC3)n(C)c12` [Example 94, 4-(2-{5-[(1R,4R,7R)-7-amino-2-azabicyclo[2.2.1]heptane-2-carbonyl]-7-methoxy-1-methyl-1H-1,3-benzodiazol-2-yl}-1-(cyclopropylmethyl)-1H-indol-7-yl)-2,5-difluorophenol] reads 45 nM; that for `COc1cc(C(=O)N2C[C@H]3CC[C@@H]2[C@@H]3N)cc2nc(-c3cc4cccc(-c5ccc6[nH]c(=O)cc(C)c6c5)c4n3CC3CC3)n(C)c12` [Example 95, 6-(2-{5-[(1R,4R,7R)-7-amino-2-azabicyclo[2.2.1]heptane-2-carbonyl]-7-methoxy-1-methyl-1H-1,3-benzodiazol-2-yl}-1-(cyclopropylmethyl)-1H-indol-7-yl)-4-methyl-1,2-dihydroquinolin-2-one], 107 nM.
The molecule `COc1cc(C(=O)N2C[C@H]3CC[C@@H]2[C@@H]3N)cc2nc(-c3cc4cccc(-c5cccc6c5CNC6=O)c4n3CC3CC3)n(C)c12` [Example 96, 4-(2-{5-[(1R,4R,7R)-7-amino-2-azabicyclo[2.2.1]heptane-2-carbonyl]-7-methoxy-1-methyl-1H-1,3-benzodiazol-2-yl}-1-(cyclopropylmethyl)-1H-indol-7-yl)-2,3-dihydro-1H-isoindol-1-one] registered an IC50 of 144 nM.
The same measure, in the same setting: under `COc1cc(C(=O)N2C[C@H]3CC[C@@H]2[C@@H]3N)cc2nc(-c3cc4cccc(-c5ccc6c(c5)CC(=O)N6)c4n3CC3CC3)n(C)c12` [Example 97, 2′-{5-[(1R,4R,7R)-7-amino-2-azabicyclo[2.2.1]heptane-2-carbonyl]-7-methoxy-1-methyl-1H-1,3-benzodiazol-2-yl}-1′-(cyclopropylmethyl)-2,3-dihydro-1H,1′H-[5,7′-biindole]-2-one] stands 23 nM; under `COc1cc(C(=O)N2C[C@H]3CC[C@@H]2[C@@H]3N)cc2nc(-c3cc4cccc(-c5ccc6c(c5)C(=O)NC6)c4n3CC3CC3)n(C)c12` [Example 98, 6-(2-{5-[(1R,4R,7R)-7-amino-2-azabicyclo[2.2.1]heptane-2-carbonyl]-7-methoxy-1-methyl-1H-1,3-benzodiazol-2-yl}-1-(cyclopropylmethyl)-1H-indol-7-yl)-2,3-dihydro-1H-isoindol-1-one], 35 nM; under `COc1cc(C(=O)N2C[C@H]3CC[C@@H]2[C@@H]3N)cc2nc(-c3cc4cccc(-c5ccc6c(c5)CCC(=O)N6)c4n3CC3CC3)n(C)c12` [Example 99, 6-(2-{5-[(1R,4R,7R)-7-amino-2-azabicyclo[2.2.1]heptane-2-carbonyl]-7-methoxy-1-methyl-1H-1,3-benzodiazol-2-yl}-1-(cyclopropylmethyl)-1H-indol-7-yl)-1,2,3,4-tetrahydroquinolin-2-one], 38 nM.
The same measure, in the same setting: the result for `COc1cc(C(=O)N2C[C@H]3CC[C@@H]2[C@@H]3N)cc2nc(-c3cc4cccc(-c5ccc6[nH]c(=O)ccc6c5)c4n3CC3CC3)n(C)c12` [Example 100, 6-(2-{5-[(1R,4R,7R)-7-amino-2-azabicyclo[2.2.1]heptane-2-carbonyl]-7-methoxy-1-methyl-1H-1,3-benzodiazol-2-yl}-1-(cyclopropylmethyl)-1H-indol-7-yl)-1,2-dihydroquinolin-2-one] reads 58 nM; that for `COC(=O)c1cc(=O)[nH]c2ccc(-c3cccc4cc(-c5nc6cc(C(=O)N7C[C@H]8CC[C@@H]7[C@@H]8N)cc(OC)c6n5C)n(CC5CC5)c34)cc12` [Example 101, methyl 6-(2-{5-[(1R,4R,7R)-7-amino-2-azabicyclo[2.2.1]heptane-2-carbonyl]-7-methoxy-1-methyl-1H-1,3-benzodiazol-2-yl}-1-(cyclopropylmethyl)-1H-indol-7-yl)-2-oxo-1,2-dihydroquinoline-4-carboxylate], 47 nM.
Still for that read-out and setting: the result for `COc1cc(C(=O)N2C[C@H]3CC[C@@H]2[C@@H]3N)cc2nc(-c3cc4cccc(-c5ccc6c(=O)[nH]ccc6c5)c4n3CC3CC3)n(C)c12` [Example 102, 6-(2-{5-[(1R,4R,7R)-7-amino-2-azabicyclo[2.2.1]heptane-2-carbonyl]-7-methoxy-1-methyl-1H-1,3-benzodiazol-2-yl}-1-(cyclopropylmethyl)-1H-indol-7-yl)-1,2-dihydroisoquinolin-1-one] reads 131 nM.
As to `COc1cc(C(=O)N2C[C@H]3CC[C@@H]2[C@@H]3N)cc2nc(-c3cc4cccc(-c5ccc6c(c5)CNC6=O)c4n3CC3CC3)n(C)c12` [Example 103, 5-(2-{5-[(1R,4R,7R)-7-amino-2-azabicyclo[2.2.1]heptane-2-carbonyl]-7-methoxy-1-methyl-1H-1,3-benzodiazol-2-yl}-1-(cyclopropylmethyl)-1H-indol-7-yl)-2,3-dihydro-1H-isoindol-1-one], the IC50 turned out to be 25 nM.
The same measure, in the same setting: under `COc1cc(C(=O)N2C[C@H]3CC[C@@H]2[C@@H]3N)cc2nc(-c3cc4cccc(-c5ccc(C(N)=O)c(Cl)c5)c4n3CC3CC3)n(C)c12` [Example 104, 4-(2-{5-[(1R,4R,7R)-7-amino-2-azabicyclo[2.2.1]heptane-2-carbonyl]-7-methoxy-1-methyl-1H-1,3-benzodiazol-2-yl}-1-(cyclopropylmethyl)-1H-indol-7-yl)-2-chlorobenzamide] stands 93 nM.
Same read-out and setting: the result for `COC(=O)Nc1ccc(-c2cccc3cc(-c4nc5cc(C(=O)N6C[C@H]7CC[C@@H]6[C@@H]7N)cc(OC)c5n4C)n(CC4CC4)c23)cn1` [Example 105, methyl N-[5-(2-{5-[(1R,4R,7R)-7-amino-2-azabicyclo[2.2.1]heptane-2-carbonyl]-7-methoxy-1-methyl-1H-1,3-benzodiazol-2-yl}-1-(cyclopropylmethyl)-1H-indol-7-yl)pyridin-2-yl]carbamate] reads 99 nM; that for `COc1cc(C(=O)N2C[C@H]3CC[C@@H]2[C@@H]3N)cc2nc(-c3cc4cccc(-c5ccc(NC(C)=O)nc5)c4n3CC3CC3)n(C)c12` [Example 106, N-[5-(2-{5-[(1R,4R,7R)-7-amino-2-azabicyclo[2.2.1]heptane-2-carbonyl]-7-methoxy-1-methyl-1H-1,3-benzodiazol-2-yl}-1-(cyclopropylmethyl)-1H-indol-7-yl)pyridin-2-yl]acetamide], 61 nM.

The same assay, now with this note: human PAD4, rapid-fire mass spectrum (RFMS) assay; 5 nM hPAD4, 250 μM BAEE; read-out: hPAD4 RFMS IC50.
With `CCOP(=O)(OCC)c1cccc2cc(-c3nc4cc(C(=O)N5C[C@H]6CC[C@@H]5[C@@H]6N)cc(OC)c4n3C)n(CC3CC3)c12` [Example 107, diethyl (2-{5-[(1R,4R,7R)-7-amino-2-azabicyclo[2.2.1]heptane-2-carbonyl]-7-methoxy-1-methyl-1H-1,3-benzodiazol-2-yl}-1-(cyclopropylmethyl)-1H-indol-7-yl)phosphonate], the IC50 amounted to 86 nM.
Same read-out and setting: under `COc1cc(C(=O)N2C[C@H]3CC[C@@H]2[C@@H]3N)cc2nc(-c3cc4cccc(-n5cc([C@H]6CC[C@H](N)CC6)nn5)c4n3CC3CC3)n(C)c12` [Example 109, (1R,4R,7R)-2-{2-[1-(cyclopropylmethyl)-7-{4-[(1r,4r)-4-aminocyclohexyl]-1H-1,2,3-triazol-1-yl}-1H-indol-2-yl]-7-methoxy-1-methyl-1H-1,3-benzodiazole-5-carbonyl}-2-azabicyclo[2.2.1]heptan-7-amine] stands 175 nM.

The values above are taken from US20220402950A1, “SUBSTITUTED BENZIMIDAZOLES AS PAD4 INHIBITORS” (BRISTOL-MYERS SQUIBB COMPANY, priority 2018, published 2022).
